Measured values: paper PMC10746543, “Design principles for cyclin K molecular glue degraders” (Nature Chemical Biology, 2023)
Values joined by “and” are separate entries in the source; they are usually repeats but may differ in a detail not shown here. Equal values may be shown once. Read-outs that look alike come from different tables or passages of the source.

How the values were obtained:
CDK12–cyclin K and DDB1 = biological target: T1, CDK12–cyclin K and DDB1 (Homo sapiens, UniProt Q16531+Q9NYV4, K965R); test: TR-FRET ternary complex formation assay (compound titration); format: binding; details: for TR-FRET signal at compound concentration: replicate titrations
T1 construct: His6–CDK12 (a.a. 713–1,052); full-length or beta-propeller B domain deletion (ΔBPB: a.a. 396–705 deleted) constructs of His6–DDB1ΔBPB, StrepII–Avi–DDB1, or His6–Spy–DDB1; made in house; host or cells: Trichoplusia ni High Five insect cells (baculovirus)
In short: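 TR-FRET ratio 520/490 nm; 70 μs delay before read to suppress background.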

[1] = tested on: cyclin K–eGFP degradation reporter; test: Cyclin K reporter stability analysis (dual-color cyclin K–eGFP reporter); format: cell-based, human
In short: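 Cells (HEK293T–Cas9, reporter-expressing) at 1 × 10^6 ml^−1; 5 h compound or DMSO; flow cytometry; gMFI eGFP ÷ mCherry on round mCherry-positive events; normalized to 3 DMSO controls.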

HEK293T cells = test: Drug sensitivity assay (CellTiter-Glo viability) with or without MLN4924 pretreatment; format: cell-based, human; details: Supplementary Table 2; for EC50: Homo sapiens, HEK-293T, HEK293T viability, 72 h, compound alone, read-out: Cellular assays EC50; for Toxicity rescue: MLN4924-mediated cytotoxicity rescue, 10 µM used where n.d.
In short: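 Luminescent ATP read-out (CellTiter-Glo) after 3 days of drug exposure, normalised to DMSO controls. Cells were HEK293T–Cas9, pretreated with 100 nM MLN4924 or DMSO for 2 h before drug dispensing.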

[2] = compound concentration 0.468 nM
[3] = compound concentration 7.92001 nM
[4] = compound concentration 15.84 nM
[5] = compound concentration 30.96 nM
[6] = compound concentration 62.6401 nM
[7] = compound concentration 125.28 nM
[8] = compound concentration 244.8 nM
[9] = compound concentration 993.601 nM
[10] = compound concentration 2001.6 nM
[11] = in vitro complex formation, 50 nM CDK12–cyclin K, 100 nM DDB1, text and figures, read-out: TR-FRET EC50
[12] = source data sheet correlations, read-out: DC50
[13] = Supplementary Table 2, HEK293T cycK-eGFP reporter, 5 h, read-out: Cellular assays DC50

T1 sequence (Q9NYV4 713-1052 K965R): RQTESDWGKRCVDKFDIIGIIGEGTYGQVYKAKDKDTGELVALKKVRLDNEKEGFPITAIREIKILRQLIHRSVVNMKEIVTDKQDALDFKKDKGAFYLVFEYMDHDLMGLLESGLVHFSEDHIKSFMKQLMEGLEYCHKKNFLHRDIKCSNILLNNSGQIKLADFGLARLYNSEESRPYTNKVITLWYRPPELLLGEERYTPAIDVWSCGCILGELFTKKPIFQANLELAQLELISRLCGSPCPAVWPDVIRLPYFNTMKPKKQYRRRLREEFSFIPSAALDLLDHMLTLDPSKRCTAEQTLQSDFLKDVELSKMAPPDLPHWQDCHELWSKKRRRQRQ
T1 sequence (O75909 1-267 partner): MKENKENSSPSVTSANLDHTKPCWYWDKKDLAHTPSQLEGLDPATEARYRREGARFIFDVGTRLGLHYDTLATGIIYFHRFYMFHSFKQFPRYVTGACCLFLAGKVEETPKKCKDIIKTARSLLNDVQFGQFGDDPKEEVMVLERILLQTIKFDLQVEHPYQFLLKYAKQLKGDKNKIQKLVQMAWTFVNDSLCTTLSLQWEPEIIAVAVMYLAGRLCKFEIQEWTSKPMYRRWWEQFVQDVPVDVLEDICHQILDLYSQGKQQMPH
T1 sequence (Q16531 whole entry): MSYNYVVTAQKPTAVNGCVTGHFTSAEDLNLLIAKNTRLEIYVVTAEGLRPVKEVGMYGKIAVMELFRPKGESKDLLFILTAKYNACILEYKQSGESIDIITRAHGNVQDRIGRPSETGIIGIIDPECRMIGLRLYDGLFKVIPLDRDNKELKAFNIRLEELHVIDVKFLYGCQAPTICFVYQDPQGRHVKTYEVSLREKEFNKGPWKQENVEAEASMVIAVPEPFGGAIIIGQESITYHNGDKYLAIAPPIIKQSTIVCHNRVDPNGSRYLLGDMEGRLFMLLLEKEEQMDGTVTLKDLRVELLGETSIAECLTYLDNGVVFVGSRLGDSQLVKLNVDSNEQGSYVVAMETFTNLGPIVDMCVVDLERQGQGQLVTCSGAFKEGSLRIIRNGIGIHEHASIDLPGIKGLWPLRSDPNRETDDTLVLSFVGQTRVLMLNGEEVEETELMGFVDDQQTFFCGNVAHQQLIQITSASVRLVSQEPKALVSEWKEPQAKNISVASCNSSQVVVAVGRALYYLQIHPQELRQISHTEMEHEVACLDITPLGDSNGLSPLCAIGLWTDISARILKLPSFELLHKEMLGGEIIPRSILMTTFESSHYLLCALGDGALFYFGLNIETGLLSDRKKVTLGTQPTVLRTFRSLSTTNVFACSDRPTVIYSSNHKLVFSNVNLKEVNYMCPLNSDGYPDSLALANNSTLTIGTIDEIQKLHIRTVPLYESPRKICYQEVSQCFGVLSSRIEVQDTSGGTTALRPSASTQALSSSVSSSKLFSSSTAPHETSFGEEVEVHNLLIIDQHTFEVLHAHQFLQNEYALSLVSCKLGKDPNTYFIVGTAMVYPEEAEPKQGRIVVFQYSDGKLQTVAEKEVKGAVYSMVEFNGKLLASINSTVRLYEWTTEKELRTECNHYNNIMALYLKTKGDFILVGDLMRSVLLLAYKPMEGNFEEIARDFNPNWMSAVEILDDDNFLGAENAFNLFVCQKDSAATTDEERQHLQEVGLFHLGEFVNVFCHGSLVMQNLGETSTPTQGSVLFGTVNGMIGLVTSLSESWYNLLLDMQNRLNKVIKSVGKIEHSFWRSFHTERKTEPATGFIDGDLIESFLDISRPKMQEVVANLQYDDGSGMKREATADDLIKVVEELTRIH

Compound | TR-FRET signal at compound concentration (CDK12–cyclin K and DDB1; [2]) | TR-FRET signal at compound concentration (CDK12–cyclin K and DDB1; compound concentration 2.16 nM) | TR-FRET signal at compound concentration (CDK12–cyclin K and DDB1; compound concentration 3.6 nM) | TR-FRET signal at compound concentration (CDK12–cyclin K and DDB1; [3]) | TR-FRET signal at compound concentration (CDK12–cyclin K and DDB1; [4]) | TR-FRET signal at compound concentration (CDK12–cyclin K and DDB1; [5]) | TR-FRET signal at compound concentration (CDK12–cyclin K and DDB1; [6]) | TR-FRET signal at compound concentration (CDK12–cyclin K and DDB1; [7]) | TR-FRET signal at compound concentration (CDK12–cyclin K and DDB1; [8]) | TR-FRET signal at compound concentration (CDK12–cyclin K and DDB1; [9]) | TR-FRET signal at compound concentration (CDK12–cyclin K and DDB1; [10]) | EC50 (CDK12–cyclin K and DDB1; [11]) | DC50 [1, 12] | EC50 (HEK293T cells) | Toxicity rescue (HEK293T cells) | DC50 [1, 13] | further results
CC[C@H](CO)Nc1nc(NCc2ccc(-c3ccccn3)c(F)c2)c2ncn(C(C)C)c2n1 [DS24] | 0.1746 and 0.2408 | 0.2584 and 0.2684 | 0.3148 and 0.3094 | 0.4213 and 0.4118 | 0.6123 and 0.5731 | 1.004 and 0.9206 | 1.811 and 1.633 | 2.96 and 2.707 | 3.542 and 3.534 | 3.814 and 3.947 | 3.863 and 4.055 | 78 ± 2 nM | 172 nM | 794 nM | 270% |  | EC50 (CDK12–cyclin K and DDB1; sheet MOESM7, read-out: log TR-FRET EC50 (converted)): 78.2 nM; EC50 (CDK12–cyclin K and DDB1; source data sheet correlations, read-out: TR-FRET EC50): 78.2 nM
CC[C@H](CO)Nc1nc(NCc2ccc(-c3ccc(C)s3)cc2)c2ncn(C(C)C)c2n1 [DS25] | 0.2617 and 0.2677 | 0.4243 and 0.428 | 0.7393 and 0.7415 | 1.2835 and 1.267 | 1.9468 and 1.95 | 2.593 and 2.662 | 3.101 and 3.186 | 3.361 and 3.544 | 3.469 and 3.727 | 3.278 and 3.742 | 3.339 and 3.592 | 15 ± 1 nM |  | 267 nM | 795% | 90 nM | EC50 (CDK12–cyclin K and DDB1; Supplementary Table 2, read-out: TR-FRET EC50 TR-FRET): 15 nM
CC[C@H](CO)Nc1nc(NCCCc2ccncc2)c2ncn(C(C)C)c2n1 [DS27] |  |  |  |  |  |  |  |  |  |  |  | 456 ± 34 nM |  | > 10000 nM | 0% | > 10000 nM | TR-FRET signal at compound concentration (CDK12–cyclin K and DDB1; compound concentration 4.68 nM): 0.135 and 0.1336; TR-FRET signal at compound concentration (CDK12–cyclin K and DDB1; compound concentration 21.6 nM): 0.1436 and 0.1394; TR-FRET signal at compound concentration (CDK12–cyclin K and DDB1; compound concentration 36 nM): 0.1546 and 0.1561; TR-FRET signal at compound concentration (CDK12–cyclin K and DDB1; compound concentration 79.2001 nM): 0.1838 and 0.187; TR-FRET signal at compound concentration (CDK12–cyclin K and DDB1; compound concentration 158.4 nM): 0.2226 and 0.2249; TR-FRET signal at compound concentration (CDK12–cyclin K and DDB1; compound concentration 309.6 nM): 0.2777 and 0.285; TR-FRET signal at compound concentration (CDK12–cyclin K and DDB1; compound concentration 626.401 nM): 0.3467 and 0.3568; TR-FRET signal at compound concentration (CDK12–cyclin K and DDB1; compound concentration 1252.8 nM): 0.4111 and 0.4466; TR-FRET signal at compound concentration (CDK12–cyclin K and DDB1; compound concentration 2448 nM): 0.4906 and 0.4799; TR-FRET signal at compound concentration (CDK12–cyclin K and DDB1; compound concentration 9936.01 nM): 0.5278 and 0.4844; TR-FRET signal at compound concentration (CDK12–cyclin K and DDB1; compound concentration 20016 nM): 0.4733 and 0.5319
CC[C@@H](CO)Nc1nc(NCc2ccc(-c3ccccn3)cc2)c2ncn(C(C)C)c2n1 [DS28, reference compound] |  |  |  |  |  |  |  |  |  |  |  |  | 27 nM | 221 nM | 610% |  | TR-FRET signal at compound concentration 0.468 nM (CDK12–cyclin K and DDB1; compound concentration 0.468 nM, raw titration data): 0.2434 and 0.2416 and 0.2052; TR-FRET signal at compound concentration 2.16 nM (CDK12–cyclin K and DDB1; compound concentration 2.16 nM, raw titration data): 0.3117 and 0.3133 and 0.2621; TR-FRET signal at compound concentration 3.6 nM (CDK12–cyclin K and DDB1; compound concentration 3.6 nM, raw titration data): 0.4303 and 0.4364 and 0.3629; TR-FRET signal at compound concentration 7.92001 nM (CDK12–cyclin K and DDB1; compound concentration 7.92001 nM, raw titration data): 0.6777 and 0.6662 and 0.6266; TR-FRET signal at compound concentration 15.84 nM (CDK12–cyclin K and DDB1; compound concentration 15.84 nM, raw titration data): 1.124 and 1.123 and 1.094; TR-FRET signal at compound concentration 30.96 nM (CDK12–cyclin K and DDB1; compound concentration 30.96 nM, raw titration data): 2.005 and 1.92 and 1.844; TR-FRET signal at compound concentration 62.6401 nM (CDK12–cyclin K and DDB1; compound concentration 62.6401 nM, raw titration data): 3.017 and 2.942 and 2.921; TR-FRET signal at compound concentration 125.28 nM (CDK12–cyclin K and DDB1; compound concentration 125.28 nM, raw titration data): 3.528 and 3.596 and 3.608; TR-FRET signal at compound concentration 244.8 nM (CDK12–cyclin K and DDB1; compound concentration 244.8 nM, raw titration data): 3.609 and 3.755 and 3.8349; TR-FRET signal at compound concentration 993.601 nM (CDK12–cyclin K and DDB1; compound concentration 993.601 nM, raw titration data): 3.693 and 3.913 and 3.885; TR-FRET signal at compound concentration 2001.6 nM (CDK12–cyclin K and DDB1; compound concentration 2001.6 nM, raw titration data): 3.507 and 3.702 and 3.683
